{"source": "patent US20090176817A1", "about": "“Method of Treatment of Diarrhea-Predominant Irritable Bowel Syndrome in a Subject” (priority 2005, published 2009)", "assay": "clinical", "details": "both, human, in vivo, po, 8 mg", "experimental": "The effect of hepatic impairment on the pharmacokinetics of cilansetron was evaluated in a multiple-dose, parallel group study in 14 healthy and 14 moderately to severely hepatically impaired male and female subjects, aged 41-70 years. Impaired subjects (Child-Pugh score 7 to 11) were matched to healthy subjects by age (±2 years), sex, menstrual status, and smoking history status. All subjects received oral cilansetron 8 mg TID on Days 1 to 5, and a single dose on the morning of Day 6. […] Blood samples were also collected at predose on Day 1, and at predose, 1 hour and 1.5 hours postdose on Day 6, for measurement of cilansetron protein binding in serum.", "data": [{"smiles": "Cc1nccn1C[C@H]1CCc2c(c3cccc4c3n2CCC4)C1=O", "note": "[Cilansetron, (R)-(−)-4,5,6,8,9,10-hexahydro-10-[(2-methyl-1H-imidazol-1-yl)methyl]-11H-pyrido-[3,2,1-jk]-carbazol-11-one]", "values": [{"measurement": "AUC", "setting": "AUC(0-τ), Geom. LS Mean", "value": 334, "unit": "ng·h/mL"}, {"measurement": "Cmax", "value": 94.4, "unit": "ng/mL"}, {"measurement": "Cmax", "setting": "Geom. LS Mean", "value": 83.9, "unit": "ng/mL"}, {"measurement": "Tmax", "setting": "Tmax", "value": 45, "unit": "min"}, {"measurement": "half-life", "setting": "T½", "value": 490, "unit": "min"}, {"measurement": "Vd/F", "setting": "Vz/F", "value": 388, "unit": "L"}]}]}
